Measurements as given in patent US8557733B2, “Composition for regenerating and stimulating growth of plants and for adapting plants to different stress factors” (Mitotech S.A., priority 2006, dated 2013).
Entries after “also recorded” stand apart in the source; their conditions may differ.

Legend:
maize callus cultures = conditions: added to nutrient medium for callus initiation; cited from earlier work
maize callus = assay: Morphogenetic processes in maize callus; format: cell-based
Description: (§1) In this work, calli and explants of tobacco, sugar cane, maize, lucerne, potato and tomatoes were used. Calli were incubated at Petri dishes containing agarized Murashige-Skoog medium with […] and 1 mg/L 2,4-dichlorophenoxyacetic acid. The cultivation was carried out at temperature 26° C., illumination intensity of 2 cd and the length of daylight of 16 hours. SkQ1 was added to autoclaved and cooled (up to 45° C.) nutrient medium immediately before callus planting. SkQ1 at concentrations of 0, 1.5, 5, 10, 20, 30 and 50 nM was used. Increase of callus green weight, a fraction of calli with shoots and roots and an average number of organs per a morphogenetic callus were taken into account after one month of cultivation.
Dose-dependent effect of SkQ1 on morphogenetic processes in maize callus was shown. […] Variations in green weight resulted mainly from amount of formed roots.

sugar cane calli [1] = assay: Shoot formation and plant regeneration from sugar cane calli; format: cell-based
Description: as §1
At the same time, development of shoots of calli transferred onto regeneration medium from medium without SkQ1 has been at the very initial stage.
To produce normal plants, sugar cane shoots formed by 10 nM SkQ1 were transferred onto rootage agarized medium containing the same optimum SkQ1 concentration (10 nM). After root formation, the plants were transferred into water medium and then displanted into the ground. Estimation of the plant state was performed at every stage.

stem tomato explants = assay: Formation of shoots and roots from stem tomato explants; format: cell-based; conditions: 10 nM SkQ1, 10 days
Description: (§2) Effect of SkQ1 on formation shoots and roots from leaf potato explants and stem tomato explants was investigated. Explants were incubated for 10 days in the presence of 10 nM SkQ1 or with no SkQ1.

sugar cane calli [2] = assay: Survival of sugar cane calli after anaerobic stress; format: cell-based; conditions: 48 hours anoxic, then aerobic medium with 10 nM SkQ1
Description: Effect of SkQ1 on survival of sugar cane calli following anaerobic stress was assessed. For this purpose, sugar cane calli were incubated for 48 hours under anoxic conditions and then were transferred under aerobic conditions at a nutrient medium containing 10 nM SkQ1or no SkQ1 (control).

tobacco leaf explants = assay: Callus formation (dedifferentiation) and root formation in tobacco leaf explants; format: cell-based; conditions: 0.6 μM SkQ1
Description: Effect of SkQ1 on callus formation (dedifferentiation) in tobacco leaf explants was investigated. Sterile leaf disks of plants Nicotiana tabacum cv Samsun were sliced with approximately 1 cm^2 size. The resulting explants were placed at standard MS medium for callus formation supplemented with phytohormones 0.5 mg/L 6-benzylaminopurine and 1 mg/L naphthylacetic acid. Test Petri plates were also supplemented with 0.6 μM SkQ1. Explants were cultivated in darkness for 5 weeks. During incubation callus was initially formed at wound explant surfaces.

Lucerne calli = assay: Callus growth and regeneration ability of lucerne calli; format: cell-based
Description: as §1
Lucerne calli were cultivated for 1 month in the presence of different SkQ1 concentrations (0-10 nM). Effect of SkQ1 on callus growth (weight change) and regeneration ability (formation of calli with “green areas”) were assessed.

rice seeds = assay: Germination of rice seeds under water (anaerobic conditions); format: in vivo
Description: Effect of SkQ1 on germination of rice seeds under water (under anaerobic conditions) was studied. SkQ1 was added to water at concentrations of 0, 1, 3, 10, 30 nM.

leaf potato explants = assay: Formation of shoots and roots from leaf potato explants; format: cell-based; conditions: 10 nM SkQ1, 10 days
Description: as §2

isolated embryos = conditions: micromolar concentration; wheat; cited from earlier work
maize embryogenic callus = conditions: cited from earlier work
wheat tussue culture = conditions: wheat tissue culture; cited from earlier work
[3] = 1-10 nM SkQ1, one month of cultivation

NC1(C(=O)O)CC1 [1-aminocyclopropane-1-carboxylic acid]
decrease of a number of produced regenerants (maize callus cultures): 68% | frequency of embryogenic callus formation (maize callus cultures): significant reduction

CC1=C(C)C(=O)C(CCCCCCCCCC[P+](c2ccccc2)(c2ccccc2)c2ccccc2)=CC1=O.[Br-] [SkQ1]
callus accretion (green weight) (maize callus; 0-50 nM SkQ1): did not affect essentially callus accretion | amount of rhizogenic calli (maize callus; 1-10 nM SkQ1): No reliable increase | average number of roots per callus (maize callus; 1-10 nM SkQ1): increased significantly | average number of shoots per callus (maize callus; [3]): increase of an average number of shoots per callus | inoculum fraction that forms shoots (maize callus; [3]): increase of inoculum fraction that forms shoots | morphogenesis (maize callus; SkQ1 at 20 nM and higher, shoot formation affected more than rhizogenesis): inhibited morphogenesis | growth oppression (maize callus; high SkQ1 concentrations): No reliable growth oppression | rhizogenesis on repeated callus cultivation (maize callus; repeated cultivation, same medium composition): even more pronounced amplification of rhizogenesis | onset of formation of shoots from calli (sugar cane calli [1]; 10 nM SkQ1, control calli showed no shoot formation): 19 day of incubation | rooting of shoots and production of plants (sugar cane calli [1]; 10 nM SkQ1, rootage medium, then water medium and ground): take roots properly and give normal viable plants | development of formed shoots on agarized regeneration medium (sugar cane calli [1]; 10 nM SkQ1 in regeneration medium): continued to develop normally | development of shoots on regeneration medium (sugar cane calli [1]; 100 nM SkQ1 in regeneration medium): termination of further development of shoots | development of shoots on regeneration medium (sugar cane calli [1]; 1000 nM SkQ1 in regeneration medium): destruction of shoots | shoot formation from undifferentiated tissue of sugar cane (sugar cane calli [1]; FIG. 1): stimulates shoot formation | viability of shoots (sugar cane calli [1]; formed and further cultivated at 100 nM or 1000 nM SkQ1): nonviable and died | onset of shoot formation from calli (sugar cane calli [1]; higher SkQ1 concentrations (above 10 nM)): > 31 days | amount of calli with shoot formation (sugar cane calli [1]; higher SkQ1 concentrations, compared with 10 nM): in lesser amount of calli | formation of shoots and roots (stem tomato explants): significantly enhances formation of both shoots and roots | capability for morphogenesis after anaerobic stress (sugar cane calli [2]): retain capability for morphogenesis | survival of calli following anaerobic stress (sugar cane calli [2]): markedly higher capability for survival; also recorded: enhances resistance | root formation from callus tissues (tobacco leaf explants; darkness, 5 weeks, controls showed no root formation): secondary differentiation of callus tissues with root formation; also recorded: stimulates root formation | state of differentiated explant tissues on further incubation (tobacco leaf explants; newly formed root tissues did well): necrotized and died | callus growth (weight change) (Lucerne calli; 0-10 nM SkQ1, 1 month): does not affect significantly callus growth | stimulation of regeneration (formation of calli with green areas) (Lucerne calli; 5 nM SkQ1, 1 month): 2.5-3 fold | stimulation of regeneration (Lucerne calli; SkQ1 concentrations higher than 5 nM): positive effect eliminates | germination of rice seeds under water (rice seeds; 1 nM SkQ1 in water): enhance significantly germination; also recorded: dramatically enhances germination | germination of rice seeds under water (rice seeds; SkQ1 at concentrations higher than 1 nM (3, 10, 30 nM)): does not reveal such a stimulating effect | formation of shoots and roots (leaf potato explants): significantly enhances formation of both shoots and roots

CC1=CC(=O)CC(C)(C)[C@@]1(O)/C=C/C(C)=C\C(=O)O [abscisic acid]
embryogenic callus formation (isolated embryos): stimulated embryogenic callus formation

C1=CC2C=CC1C2 [norbornadiene]
frequency of embryogenic callus formation (maize callus cultures): stimulated embryogenic callus formation

O=C(O)[C@@H]1CCCN1 [proline]
number of regenerants per explant (maize embryogenic callus; 20 mM proline, 2.8 without): 7.6 | increase of frequency of embryogenic callus formation and plant regeneration (maize embryogenic callus; 400 mg/L proline in medium): 2-3 fold

O=[N+]([O-])[O-].[Ag+] [silver nitrate]
frequency of embryogenic callus formation (maize callus cultures): stimulated embryogenic callus formation

xyloglucan pentasaccharide
enhancement of morphogenesis (wheat tussue culture): 1.5-2 fold
